The target of assay [1] is human KEAP1 (N-term, residues 321-609) (Homo sapiens, UniProt Q14145). Description: biochemical.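 Note: fluorescence polarization competition assay of Kelch domain binding to NRF2, 12-point 1:3 dilution series from 10 µM, read after 1 h at room temperature, floor 10 nM.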
Assay [2] concerns NQO1 mRNA in BEAS-2B cells. Description: Beas2B NQO1 mRNA cell based assay. Also on record: species or system human. As to conditions: 24 h compound treatment, increase in NQO1 mRNA vs vehicle (0.1% DMSO), read-out: EC50. The method, boiled down:
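BEAS-2B human bronchial epithelial cells exposed to compound for 24 h at 37 °C, 5% CO2. NQO1 mRNA measured by one-step TaqMan RT-qPCR on unpurified lysates, normalized to β-actin; relative expression by ΔΔCT method.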

Where two headings read alike, the source gives them in different places.

The IC50 is the concentration at which inhibition is half-maximal. A higher IC50 goes with weaker potency. One may read the EC50 as the concentration at which the effect is half-maximal.

human KEAP1 (N-term, residues 321-609), sequence (Q14145 321-609): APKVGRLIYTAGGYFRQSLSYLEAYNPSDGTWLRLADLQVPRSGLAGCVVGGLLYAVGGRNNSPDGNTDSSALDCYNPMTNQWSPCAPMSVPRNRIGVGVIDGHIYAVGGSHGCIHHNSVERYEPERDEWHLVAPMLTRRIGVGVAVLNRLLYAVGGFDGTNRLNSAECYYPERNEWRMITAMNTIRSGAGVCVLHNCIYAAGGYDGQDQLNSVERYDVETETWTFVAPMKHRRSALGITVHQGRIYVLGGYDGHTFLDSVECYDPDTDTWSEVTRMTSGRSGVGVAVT

In assay [1], `COCCn1nnc(COc2ccc(Cl)c3c2[C@@H](CN2CCCC2=O)N(C(=O)[C@@H]2CCCC[C@]2(C)C(=O)O)CC3)c1C(F)F` [Example 145, (1S,2R)-2-((S)-5-chloro-8-((5-(difluoromethyl)-1-(2-methoxyethyl)-1H-1,2,3-triazol-4-yl)methoxy)-1-((2-oxopyrrolidin-1-yl)methyl)-1,2,3,4-tetrahydroisoquinoline-2-carbonyl)-1-methylcyclohexane-1-carboxylic acid] showed an IC50 of 6.4 nM. For the same compound, in assay [2] (Homo sapiens, BEAS-2B, 24 h), the EC50 is 4.9 nM.

In assay [1], `Cn1nnc(COc2ccc(F)c3c2[C@@H](CN2CCCC2=O)N(C(=O)[C@@H]2CCCC[C@]2(C)C(=O)O)CC3)c1C(F)(F)F` [Example 178, (1S,2R)-2-((S)-5-fluoro-8-((1-methyl-5-(trifluoromethyl)-1H-1,2,3-triazol-4-yl)methoxy)-1-((2-oxopyrrolidin-1-yl)methyl)-1,2,3,4-tetrahydroisoquinoline-2-carbonyl)-1-methylcyclohexane-1-carboxylic acid] had a concentration for half-maximal inhibition (IC50) of 6.4 nM. The EC50 in assay [2] (Homo sapiens, BEAS-2B, 24 h) amounted to 13 nM.

As to `O=C(O)[C@H]1CCCC[C@H]1C(=O)N1CCc2c(Cl)ccc(OCc3cn4cccnc4n3)c2[C@H]1CN1CCCC1=O` [Example 92, (1S,2R)-2-((S)-5-Chloro-8-(imidazo[1,2-a]pyrimidin-2-ylmethoxy)-1-((2-oxopyrrolidin-1-yl)methyl)-1,2,3,4-tetrahydroisoquinoline-2-carbonyl) cyclohexane-1-carboxylic acid], the half-inhibitory concentration (IC50) in assay [1] turned out to be 15 nM. Besides, in assay [2] (Homo sapiens, BEAS-2B, 24 h), the concentration giving a half-maximal response (EC50) amounted to 180 nM.

Consider `Cc1ccc(OCc2nnn(C)c2C(F)(F)F)c2c1CCN(C(=O)[C@@H]1CCCC[C@]1(C)C(=O)O)[C@@H]2CN1CCCC1=O` [Example 174, (1S,2R)-1-Methyl-2-((S)-5-methyl-8-((1-methyl-5-(trifluoromethyl)-1H-1,2,3-triazol-4-yl)methoxy)-1-((2-oxopyrrolidin-1-yl)methyl)-1,2,3,4-tetrahydroisoquinoline-2-carbonyl)cyclohexane-1-carboxylic acid], for which the IC50 in assay [1] is 11 nM. Also, the EC50 in assay [2] (Homo sapiens, BEAS-2B, 24 h) amounted to 6.6 nM.

In the case of `Cn1nnc(COc2ccc(Cl)c3c2[C@@H](CN2CC4(CC4)CC2=O)N(C(=O)[C@@H]2C[C@H]4C[C@H]4C[C@]2(C)C(=O)O)CC3)c1C(F)F` [Example 208, (1S,3S,4R,6R)-4-((S)-5-chloro-8-((5-(difluoromethyl)-1-methyl-1H-1,2,3-triazol-4-yl)methoxy)-1-((6-oxo-5-azaspiro[2.4]heptan-5-yl)methyl)-1,2,3,4-tetrahydroisoquinoline-2-carbonyl)-3-methylbicyclo[4.1.0]heptane-3-carboxylic acid], it took 580 nM to reach half-maximal inhibition in assay [1] (IC50). Moreover, in assay [2] (Homo sapiens, BEAS-2B, 24 h), the EC50 is 3300 nM.

In assay [1], `O=C(NCCOc1cccc2c1[C@@H](CN1C(=O)c3ccccc3C1=O)N(C(=O)[C@@H]1CCCC[C@@H]1C(=O)O)CC2)c1nc2ccccc2o1` [Example 2, (1S,2R)-2-((S)-8-(2-(Benzo[d]oxazole-2-carboxamido)ethoxy)-1-((1,3-dioxoisoindolin-2-yl)methyl)-1,2,3,4-tetrahydroisoquinoline-2-carbonyl)cyclohexane-1-carboxylic acid] yielded an IC50 of 12 nM. Moreover, the EC50 in assay [2] (Homo sapiens, BEAS-2B, 24 h) was 150 nM.

In assay [1], `CC(=O)N1CC[C@H](Oc2ccc(Br)c3c2[C@@H](CN2Cc4ccccc4C2=O)N(C(=O)[C@@H]2CCCC[C@@H]2C(=O)O)CC3)C1` [Example 19, (1S,2R)-2-((S)-8-(((S)-1-acetylpyrrolidin-3-yl)oxy)-5-bromo-1-((1-oxoisoindolin-2-yl)methyl)-1,2,3,4-tetrahydroisoquinoline-2-carbonyl)cyclohexane-1-carboxylic acid] gave an IC50 of 9.7 nM. In addition, in assay [2] (Homo sapiens, BEAS-2B, 24 h), the EC50 stood at 130 nM.

As for `Cn1nnc2c1CC(Oc1ccc(Cl)c3c1[C@@H](CN1CC4(CC4)CC1=O)N(C(=O)[C@@H]1CCCC[C@]1(C)C(=O)O)CC3)C2` (single isomer, unassigned; isomer 2) [Example 216], the IC50 in assay [1] stood at 6.4 nM. Further, the concentration for a half-maximal effect (EC50) in assay [2] was 110 nM.

Compound `O=C(O)[C@H]1CCCC[C@H]1C(=O)N1CCc2c(Cl)ccc(OCc3cccnn3)c2[C@H]1CN1CCCC1=O` [Example 88, (1S,2R)-2-((S)-5-Chloro-1-((2-oxopyrrolidin-1-yl)methyl)-8-(pyridazin-3-ylmethoxy)-1,2,3,4-tetrahydroisoquinoline-2-carbonyl) cyclohexane-1-carboxylic acid] came in with an IC50 in assay [1] of 11 nM. Moreover, the EC50 in assay [2] (Homo sapiens, BEAS-2B, 24 h) turned out to be 78 nM.

For `C[C@H]1CCC(=O)N1C[C@@H]1c2c(OCc3nnn(C)c3C(F)F)ccc(Cl)c2CCN1C(=O)[C@@H]1CCCC[C@]1(C)C(=O)O` [Example 195, (1S,2R)-2-((S)-5-chloro-8-((5-(difluoromethyl)-1-methyl-1H-1,2,3-triazol-4-yl)methoxy)-1-(((S)-2-methyl-5-oxopyrrolidin-1-yl)methyl)-1,2,3,4-tetrahydroisoquinoline-2-carbonyl)-1-methylcyclohexane-1-carboxylic acid], the half-maximal inhibitory concentration (IC50) in assay [1] came to 13 nM. In addition, the 50% effective concentration (EC50) in assay [2] (Homo sapiens, BEAS-2B, 24 h) is 6.8 nM.

In turn, `Cn1nnc(COc2ccc(Cl)c3c2[C@@H](CN2CC4(CC4)CC2=O)N(C(=O)[C@@H]2CCCC[C@]2(C)C(=O)O)CC3)c1C1COC1` [Example 199, (1S,2R)-2-((S)-5-chloro-8-((1-methyl-5-(oxetan-3-yl)-1H-1,2,3-triazol-4-yl)methoxy)-1-((6-oxo-5-azaspiro [2.4]heptan-5-yl)methyl)-1,2,3,4-tetrahydroisoquinoline-2-carbonyl)-1-methylcyclohexane-1-carboxylic acid] returned a concentration for half-maximal inhibition (IC50) in assay [1] of 5.3 nM. For the same compound, the concentration giving a half-maximal response (EC50) in assay [2] (Homo sapiens, BEAS-2B, 24 h) is 0.34 nM.

In assay [1], `C[C@]1(C(=O)O)CCCC[C@H]1C(=O)N1CCc2c(Cl)ccc(OCc3nnc4n3CCOC4)c2[C@H]1CN1CC2(CC2)CC1=O` [Example 176, (1S,2R)-2-((S)-5-chloro-8-((5,6-dihydro-8H-[1,2,4]triazolo[3,4-c][1,4]oxazin-3-yl)methoxy)-1-((6-oxo-5-azaspiro [2.4]heptan-5-yl)methyl)-1,2,3,4-tetrahydroisoquinoline-2-carbonyl)-1-methylcyclohexane-1-carboxylic acid] gave a half-inhibitory concentration (IC50) of 6.2 nM. The EC50 in assay [2] (Homo sapiens, BEAS-2B, 24 h) came to 2.8 nM.

As for `Cn1cnc(COc2ccc(Cl)c3c2[C@@H](CN2CC4(CC4)CC2=O)N(C(=O)[C@@H]2CCCC[C@]2(C)C(=O)O)CC3)c1` [Example 185, (1S,2R)-2-((S)-5-chloro-8-((1-methyl-1H-imidazol-4-yl)methoxy)-1-((6-oxo-5-azaspiro[2.4]heptan-5-yl)methyl)-1,2,3,4-tetrahydroisoquinoline-2-carbonyl)-1-methylcyclohexane-1-carboxylic acid], the IC50 in assay [1] worked out at 6.2 nM. Further, the EC50 in assay [2] (Homo sapiens, BEAS-2B, 24 h) stood at 56 nM.

As to `Cn1cc(COc2ccc(Br)c3c2[C@@H](CN2Cc4ccccc4C2=O)N(C(=O)[C@@H]2CCCC[C@@H]2C(=O)O)CC3)nn1` [Example 34, (1S,2R)-2-((S)-5-bromo-8-((1-methyl-1H-1,2,3-triazol-4-yl)methoxy)-1-((1-oxoisoindolin-2-yl)methyl)-1,2,3,4-tetrahydroisoquinoline-2-carbonyl)cyclohexane-1-carboxylic acid], the midpoint of inhibition in assay [1], the IC50, lay at 5 nM. Moreover, the EC50 in assay [2] (Homo sapiens, BEAS-2B, 24 h) is 3.3 nM.

Regarding `Cc1cnc(COc2ccc(Br)c3c2[C@@H](CN2CCCC2=O)N(C(=O)[C@@H]2CCCC[C@@H]2C(=O)O)CC3)s1` [Example 65, (1S,2R)-2-((S)-5-bromo-8-((5-methylthiazol-2-yl)methoxy)-1-((2-oxopyrrolidin-1-yl)methyl)-1,2,3,4-tetrahydroisoquinoline-2-carbonyl) cyclohexane-1-carboxylic acid], in assay [1], the IC50 amounted to 11 nM. The EC50 in assay [2] (Homo sapiens, BEAS-2B, 24 h) turned out to be 97 nM.

Consider `C[C@]1(C(=O)O)CCCC[C@H]1C(=O)N1CCc2c(Cl)ccc(OC3CCn4cnnc43)c2[C@H]1CN1CC2(CC2)CC1=O` (stereo partly drawn) [Example 209, (1S,2R)-2-((1S)-5-chloro-8-((6,7-dihydro-5H-pyrrolo [2,1-c][1,2,4]triazol-7-yl)oxy)-1-((6-oxo-5-azaspiro[2.4]heptan-5-yl)methyl)-1,2,3,4-tetrahydroisoquinoline-2-carbonyl)-1-methylcyclohexane-1-carboxylic acid], for which the IC50 in assay [1] was determined as 8.4 nM. Besides, the EC50 in assay [2] (Homo sapiens, BEAS-2B, 24 h) is 290 nM.

In assay [1], `O=C(O)[C@H]1CCCC[C@H]1C(=O)N1CCc2c(Cl)ccc(OCc3nccn3CC(F)(F)F)c2[C@H]1CN1Cc2ccccc2C1=O` [Example 51, (1S,2R)-2-((S)-5-chloro-1-((1-oxoisoindolin-2-yl)methyl)-8-((1-(2,2,2-trifluoroethyl)-1H-imidazol-2-yl)methoxy)-1,2,3,4-tetrahydroisoquinoline-2-carbonyl)cyclohexane-1-carboxylic acid] yielded an IC50 of 10 nM. Also, the EC50 in assay [2] (Homo sapiens, BEAS-2B, 24 h) came to 110 nM.

Regarding `C[C@H]1CC(=O)N(C[C@@H]2c3c(OCc4nnn(C)c4C(F)F)ccc(Cl)c3CCN2C(=O)[C@@H]2CCC[C@]2(C)C(=O)O)C1` [Example 116, (1S,2R)-2-((S)-5-chloro-8-((5-(difluoromethyl)-1-methyl-1H-1,2,3-triazol-4-yl)methoxy)-1-(((S)-4-methyl-2-oxopyrrolidin-1-yl)methyl)-1,2,3,4-tetrahydroisoquinoline-2-carbonyl)-1-methylcyclopentane-1-carboxylic acid], the concentration for half-maximal inhibition (IC50) in assay [1] was determined as 73 nM. In addition, the EC50 in assay [2] (Homo sapiens, BEAS-2B, 24 h) came out at 1900 nM.

`CC(C)n1nnc(COc2ccc(Cl)c3c2[C@@H](CN2CCCC2=O)N(C(=O)[C@@H]2CCC[C@]2(C)C(=O)O)CC3)c1C(F)F` [Example 122, (1S,2R)-2-((S)-5-chloro-8-((5-(difluoromethyl)-1-isopropyl-1H-1,2,3-triazol-4-yl)methoxy)-1-((2-oxopyrrolidin-1-yl)methyl)-1,2,3,4-tetrahydroisoquinoline-2-carbonyl)-1-methylcyclopentane-1-carboxylic acid] registered an IC50 in assay [1] of 9.7 nM. Further, the concentration for a half-maximal effect (EC50) in assay [2] (Homo sapiens, BEAS-2B, 24 h) stood at 86 nM.

Source of the values: US12098148B2, “Therapeutic compounds” (C4X Discovery Limited, priority 2018, dated 2024).
